Measurements as given in PMC5343891, “Cell Imaging Counting as a Novel Ex Vivo Approach for Investigating Drug-Induced Hepatotoxicity in Zebrafish Larvae” (International Journal of Molecular Sciences, 2017).

Legend:
[1] = system: Tg(fabp10a:DsRed) zebrafish larvae; experiment: Hepatotoxicity by quantification of DsRed-labeled hepatocytes using cell imaging counting (CIC); conditions: for change in amount of recovered hepatocytes: any of the administration routes, vs non-treated animals; for Hepatotoxicity detected: number of Hepatocytes (CIC): 6 dpf, vs vehicle control
Protocol: We then used CIC and quantified ex vivo DsRed-labeled hepatocytes after dispase-digestion of hepatotoxicant-exposed larvae. […] Analysis was performed after three days of treatment (immersion) or three days after treatment (injection), at 6 dpf. A total of 10 and 12 larvae were used individually per condition for immersion and injections, respectively. The experiment was performed in triplicate and data were pooled. […] Means ± SD of the number of hepatocytes per larva are shown.
Compounds tested were dissolved in DMSO (stock solution) and then further diluted in Danieau’s solution with a final concentration of 1% DMSO or diluted with 0.9% NaCl solution (1:1 ratio) to obtain a working solution for immersion and yolk/pericardial injections, respectively. At 3 dpf, hatched Tg(fabp10a:DsRed) larvae were transferred to 24-well plates (Falcon®, Corning, Lasne, Belgium) with each well containing 10 larvae in 1 mL Danieau’s solution and the dissolved drug or the vehicle control for immersion. For yolk injections, and pericardial injections into the bloodstream via the common cardinal veins, 12 larvae were used for each condition, and each larva was injected with 1 nL of solution at 3 dpf.
In order to digest the larvae and separate hepatocytes from the liver, larvae were transferred to 96 well-plates (Falcon®, Corning, Lasne, Belgium) with one larva per well and incubated with 200 µL 2.5 mg dispase/mL DPBS for 4 h. […] The hepatocytes were dispersed by pipetting up and down 20 times with a 1 mL automatic pipette. After digestion, hepatocytes were positioned at the bottom of the well by centrifugation at 200× g (Jouan CR412 centrifuge, Jouan, Saint-Herblain, France) for 15 min.
Fluorescent hepatocytes present in the wells were imaged and counted on an IN Cell Analyzer 2000 using software IN Cell Investigator Developer Toolbox (GE Healthcare, Machelen, Belgium), with a 2×/0.1 NA lens, DsRed fluorescence channel, a 0.1-s exposure time, and the intensity segmentation (172-4095) set to ensure hepatocytes were recognized selectively.
Differences between drug-treated groups and control vehicle control (VHC) regarding numbers of hepatocytes and liver sizes were analyzed for statistical significance using an ANOVA test. Regarding the liver morphology, Fisher’s exact test was used for the analysis. p < 0.05 was considered statistically significant.

[2] = system: Tg(fabp10a:DsRed) zebrafish larvae; experiment: Hepatotoxicity by size analysis of fluorescent 2D liver images (ImageJ); format: in vivo, Zebrafish (Danio rerio); conditions: for change in liver size: any of the administration routes, vs non-treated animals; for Hepatotoxicity detected: Liver size: 6 dpf, vs vehicle control; as to Hepatotoxicity detected: Liver size: key: Bold S: statistically significant difference; NS: no statistically significant difference
Protocol: Next, the 2D images obtained in the previous section were used to analyze the size of the fluorescent livers by ImageJ software. […].
(§1) At 6 dpf treated larvae were anesthetized by 0.5 mM tricaine in a 6 well-plate (Falcon®) and arranged so that they were lying on their right sides with their heads facing left. This enabled us to view the left lateral side of the larvae and the larger lobe of the liver that was scored in a blinded manner under a fluorescence microscope (Leica MZ10F-Dsred channel, 40× magnification, Leica Microsystems, Wetzlar, Germany). Livers were considered abnormal if their typical globular structure underwent gross morphological changes. Images of the livers (including a scale bar) were imported to ImageJ software (National Institutes of Health, Bethesda, MD, USA) for determining the liver size. To that end, the picture was set to scale (functions: analyze, set scale), the liver area extracted (functions: split channel, threshold) and the area calculated (function: analyze particles, settings: size = 0−infinity, circularity = 0.00−1.00).

[3] = system: Tg(fabp10a:DsRed) zebrafish larvae; experiment: Lethality in zebrafish larvae: maximum non-toxic drug concentration/dose (MC/MD); format: in vivo, Zebrafish (Danio rerio); conditions: for MC: maximum non-toxic drug concentration: immersion 3-6 dpf, less than 10% larval death at 6 dpf, or highest soluble concentration; for lethality (larval death): immersion, yolk and pericardial injection, up to highest soluble concentration/dose, 6 dpf; for MD: maximum non-toxic drug dose: less than 10% larval death at 6 dpf, or highest dose injectable without precipitation
Source text: The results are expressed as percentage of dead larvae relative to the total larvae (mean ± SD).

[4] = system: Tg(fabp10a:DsRed) zebrafish larvae; experiment: Hepatotoxicity by visual analysis of liver morphology using fluorescence microscopy; format: in vivo, Zebrafish (Danio rerio); conditions: 6 dpf; for Hepatotoxicity detected: Morphology: vs vehicle control; as to Hepatotoxicity detected: Morphology: key: Bold S: statistically significant difference; NS: no statistically significant difference
Protocol: We observed a range of abnormal liver phenotypes including reduced and enlarged livers (Figure 2). […].
The results are expressed as the percentage of larvae having normal or abnormal liver morphology.
as §1

[5] = Pharmacokinetics in zebrafish larvae (larval extracts, UHPLC-UV); format: in vivo, Zebrafish (Danio rerio); conditions: 0-24 h post treatment; for course of larval concentration after injection: yolk and pericardial injection at MD
Protocol: At given time points (0, 2, 6, 12 and 24 h), treated larvae were collected and transferred to 1.5 mL Eppendorf® tubes pre-filled with acid washed glass beads (diameter: 710–1180 µm, Sigma-Aldrich) and 270 µL of extraction medium (1:2 water:methanol, each containing 0.1% formic acid) was added (10 larvae per Eppendorf® tube). Samples were centrifuged for 15 s at 14,100× g (Eppendorf Mini Spin Plus, Hamburg, Germany) to insure high homogenization efficiency. Subsequently, the samples were homogenized with ultrasonication (Diagenode Bioruptor Plus, Seraing, Belgium) at +4 °C and high energy input setting to ensure the highest possible disruption of the cells. The overall treatment time was 15 min spread over 30 cycles of 30 s treatment followed by pauses of 30 s in-between. Six samples were homogenized during each treatment cycle. Subsequently, treated samples were centrifuged at 14,100× g for 15 min and 200 µL of supernatant was transferred to an empty Eppendorf tube (1.5 mL) and stored on ice until all samples were processed. All samples were then placed into a vacuum oven (Model 1410, Sheldon Manufacturing Inc., Cornelius, OR, USA) and evaporated until dry at +45 °C during 45 min. The samples were then reconstituted with a mobile phase-like solution (6% acetonitrile in water), vortexed for 5 s, resuspended at least three times with a micropipette and sonicated (Branson 3510, Danbury, CT, USA) for 15 min. Finally, samples were transferred into amber glass vials (Supelco, Bellefonte, PA, USA) with 250 µL glass inserts (Supelco) for further analysis on UHPLC-UV.
An Agilent 1290 UHPLC system (Agilent, Waldbronn, Germany) consisting of an autosampler, quaternary pump, degasser and DAD-detector (diode array detector) was used for all uptake measurements. […] All calculations concerning the evaluation of recorded data were made in MS Excel (Microsoft Corporation, Seattle, WA, USA). […]
The larval amount of hepatotoxicant (mg/kg) was calculated assuming the weight of a 3 or 4 dpf Tg(fabp10a:DsRed) zebrafish larva to be 0.25 mg.

[6] = all three administration routes, MC/MD and dilutions
[7] = immersion, MC and lower concentrations

| SMILES | change in amount of recovered hepatocytes [1] | change in liver size [2] | MC: maximum non-toxic drug concentration [3] | lethality (larval death) [3] | MD: maximum non-toxic drug dose ([3]; pericardial injection at 3 dpf) | MD: maximum non-toxic drug dose ([3]; yolk injection at 3 dpf) | abnormal liver morphology [4, 6] | hepatotoxicity by liver size [2, 7] | Hepatotoxicity detected: Liver size ([2]; immersion, MC) | Hepatotoxicity detected: Morphology ([4]; immersion, MC) | Hepatotoxicity detected: Morphology ([4]; yolk injection, MD) | course of larval concentration after injection [5] | also measured |
| --- | --- | --- | --- | --- | --- | --- | --- | --- | --- | --- | --- | --- | --- |
| C[C@@H]1O[C@@H](OC[C@H]2O[C@@H](Oc3c(-c4ccc(O)c(O)c4)oc4cc(O)cc(O)c4c3=O)[C@H](O)[C@@H](O)[C@@H]2O)[C@H](O)[C@H](O)[C@H]1O [Rutin] | did not induce any change in the amount of recovered hepatocytes | did not induce any change in liver size | 200 ^1 µM | did not induce lethality | 150 ^1 mg/kg | 150 ^1 mg/kg | did not induce abnormal liver morphology | – | – | – | – | – | – |
| CC(=O)Nc1ccc(O)cc1 [Paracetamol] | – | – | 7500 µM | caused larval death in several of the conditions tested | 604 ^1 mg/kg | 604 ^1 mg/kg | – | hepatotoxic only at their MC | S | S | S | fully excreted or metabolized after 24 h | hepatotoxicity by liver size ([2]; injected (yolk or pericardial)): exhibited an effect at its MD after yolk administration; Hepatotoxicity detected: Liver size ([2]; yolk injection, MD): S; Hepatotoxicity detected: Morphology ([4]; immersion, ½ MC): S; abnormal liver morphology ([4]; pericardial injections): no significant toxic effects; Hepatotoxicity detected: Morphology ([4]; yolk injection, ½ MD): S; half-life ([5]; Tg(fabp10a:DsRed), zebrafish, in vivo, after both yolk and pericardial injections (604 mg/kg), read-out: half-life of larval concentration): 6 to 8 h |
| CN(C)[C@@H]1C(O)=C(C(N)=O)C(=O)[C@@]2(O)C(O)=C3C(=O)c4c(O)cccc4[C@@](C)(O)[C@H]3C[C@@H]12 [Tetracycline] | – | – | – | – | 384 ^1 mg/kg | 192 mg/kg | induced abnormal liver morphology in a dose-dependent manner | hepatotoxic only at their MC | S | S | S | remained nearly constant | Hepatotoxicity detected: number of Hepatocytes (CIC) ([1]; immersion, MC): S; hepatotoxicity by CIC hepatocyte count ([1]; immersion, three concentrations): hepatotoxic effects induced by all three tetracycline concentrations; Hepatotoxicity detected: number of Hepatocytes (CIC) ([1]; immersion, ¼ MC): S; Hepatotoxicity detected: number of Hepatocytes (CIC) ([1]; immersion, ½ MC): S; hepatotoxicity by CIC hepatocyte count ([1]; injected doses (yolk or pericardial)): showed no effects; Hepatotoxicity detected: Morphology ([4]; pericardial injection, MD): S; Hepatotoxicity detected: Morphology ([4]; pericardial injection, ½ MD): S |
| OC[C@H]1O[C@@](CO)(O[C@H]2O[C@H](CO)[C@@H](O)[C@H](O)[C@H]2O)[C@@H](O)[C@@H]1O [Sucrose] | did not induce any change in the amount of recovered hepatocytes | did not induce any change in liver size | 8000 ^1 µM | did not induce lethality | 548 ^1 mg/kg | 548 ^1 mg/kg | did not induce abnormal liver morphology | – | – | – | – | – | – |
